Where two headings read alike, the source gives them in different places.
Legend:
[1] = tested on: A375-NRAS^Q61K cells; experiment: CTGlo Cell Viability Assay, A375-NRAS^Q61K (A375.11) cells, 96 hours; format: cell-based, human; conditions: A375.11 (A375-NRAS^Q61K) cells; for Emax: lowest % viability achieved
Procedure, shortened: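 A375 cells carrying BRAF V600E and NRAS Q61K were seeded at 250 cells/well with a 10-point half-log dose series (max 10 μM final). After 96 h at 37 °C, viability was read as ATP luminescence (CellTiter-Glo), background-subtracted and normalized to DMSO (100%). GI50 from 4-parameter fit; Emax is the lowest % viability.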

[2] = target: T1, BRAF V600E (Homo sapiens, UniProt P15056+Q96SW2, V600E); experiment: BRAF V600E HiBiT Degradation Assay; format: cell-based; conditions: A375.10 cells, BRAF V600E
T1 construct: knock-in of the HiBiT tag to the endogenous BRAF V600E locus; host or cells: A375.10 (A375 clonal line, CRISPR HiBiT knock-in at the endogenous BRAF V600E locus)
Procedure, shortened: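 Endogenous HiBiT knock-in on BRAF V600E in A375 cells (clone A375.10); 11-point half-log series, top 10 μM, 2, 6 or 24 h at 37° C. Lytic HiBiT luminescence, background-subtracted, normalized to DMSO; 4-parameter fit gives DC50, Emax (residual protein) and IP (inflection point).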

[3] = 2 hours, inflection point, read-out: HiBiT-Degradation A375.10 BRAF 2 hours IP
[4] = 2 hours, read-out: HiBiT-Degradation A375.10 BRAF 2 hours DC50
[5] = 2 hours, residual protein remaining, read-out: HiBiT-Degradation A375.10 BRAF 2 hours Emax
[6] = HiBiT, 24 hours, read-out: HiBiT-Degradation A375.10 BRAF 24 hours DC50
[7] = HiBiT, 24 hours, read-out: HiBiT-Degradation A375.10 BRAF 24 hours Emax
[8] = HiBiT, 24 hours, read-out: HiBiT-Degradation A375.10 BRAF 24 hours IP

T1 sequence (P15056 whole entry V600E): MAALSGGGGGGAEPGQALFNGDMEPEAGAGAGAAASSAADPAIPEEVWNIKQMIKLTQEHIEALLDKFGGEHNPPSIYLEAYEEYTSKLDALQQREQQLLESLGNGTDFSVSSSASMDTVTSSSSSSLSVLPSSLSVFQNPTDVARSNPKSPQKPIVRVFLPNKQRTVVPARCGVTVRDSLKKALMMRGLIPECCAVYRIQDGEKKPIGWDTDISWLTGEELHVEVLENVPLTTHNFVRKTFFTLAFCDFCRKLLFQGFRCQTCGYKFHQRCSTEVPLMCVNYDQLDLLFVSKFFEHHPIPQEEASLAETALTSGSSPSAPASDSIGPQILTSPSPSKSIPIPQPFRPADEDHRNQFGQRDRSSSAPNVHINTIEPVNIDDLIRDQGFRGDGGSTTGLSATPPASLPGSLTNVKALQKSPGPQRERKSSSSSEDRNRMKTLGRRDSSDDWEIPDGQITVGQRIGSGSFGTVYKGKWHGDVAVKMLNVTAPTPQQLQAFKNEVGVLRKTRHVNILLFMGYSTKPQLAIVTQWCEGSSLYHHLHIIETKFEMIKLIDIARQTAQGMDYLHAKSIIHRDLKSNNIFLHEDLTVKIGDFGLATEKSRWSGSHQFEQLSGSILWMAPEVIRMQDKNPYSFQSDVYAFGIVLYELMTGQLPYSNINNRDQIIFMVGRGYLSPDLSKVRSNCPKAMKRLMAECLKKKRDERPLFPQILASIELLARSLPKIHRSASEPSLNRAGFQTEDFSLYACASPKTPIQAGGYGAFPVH
T1 sequence (Q96SW2 whole entry): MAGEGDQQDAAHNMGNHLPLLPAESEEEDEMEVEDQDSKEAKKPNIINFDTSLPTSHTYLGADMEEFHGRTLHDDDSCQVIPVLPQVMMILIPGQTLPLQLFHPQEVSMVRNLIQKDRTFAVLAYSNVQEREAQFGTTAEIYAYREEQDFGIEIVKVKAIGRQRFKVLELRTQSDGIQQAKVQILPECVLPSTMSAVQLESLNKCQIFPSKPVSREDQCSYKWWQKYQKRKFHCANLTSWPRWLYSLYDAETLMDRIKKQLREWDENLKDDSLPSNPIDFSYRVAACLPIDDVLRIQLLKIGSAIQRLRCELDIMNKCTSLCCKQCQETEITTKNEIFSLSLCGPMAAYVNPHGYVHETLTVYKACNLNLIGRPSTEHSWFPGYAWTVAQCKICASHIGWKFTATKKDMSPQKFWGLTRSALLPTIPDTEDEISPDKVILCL
T1 sequence (Q16531 whole entry partner): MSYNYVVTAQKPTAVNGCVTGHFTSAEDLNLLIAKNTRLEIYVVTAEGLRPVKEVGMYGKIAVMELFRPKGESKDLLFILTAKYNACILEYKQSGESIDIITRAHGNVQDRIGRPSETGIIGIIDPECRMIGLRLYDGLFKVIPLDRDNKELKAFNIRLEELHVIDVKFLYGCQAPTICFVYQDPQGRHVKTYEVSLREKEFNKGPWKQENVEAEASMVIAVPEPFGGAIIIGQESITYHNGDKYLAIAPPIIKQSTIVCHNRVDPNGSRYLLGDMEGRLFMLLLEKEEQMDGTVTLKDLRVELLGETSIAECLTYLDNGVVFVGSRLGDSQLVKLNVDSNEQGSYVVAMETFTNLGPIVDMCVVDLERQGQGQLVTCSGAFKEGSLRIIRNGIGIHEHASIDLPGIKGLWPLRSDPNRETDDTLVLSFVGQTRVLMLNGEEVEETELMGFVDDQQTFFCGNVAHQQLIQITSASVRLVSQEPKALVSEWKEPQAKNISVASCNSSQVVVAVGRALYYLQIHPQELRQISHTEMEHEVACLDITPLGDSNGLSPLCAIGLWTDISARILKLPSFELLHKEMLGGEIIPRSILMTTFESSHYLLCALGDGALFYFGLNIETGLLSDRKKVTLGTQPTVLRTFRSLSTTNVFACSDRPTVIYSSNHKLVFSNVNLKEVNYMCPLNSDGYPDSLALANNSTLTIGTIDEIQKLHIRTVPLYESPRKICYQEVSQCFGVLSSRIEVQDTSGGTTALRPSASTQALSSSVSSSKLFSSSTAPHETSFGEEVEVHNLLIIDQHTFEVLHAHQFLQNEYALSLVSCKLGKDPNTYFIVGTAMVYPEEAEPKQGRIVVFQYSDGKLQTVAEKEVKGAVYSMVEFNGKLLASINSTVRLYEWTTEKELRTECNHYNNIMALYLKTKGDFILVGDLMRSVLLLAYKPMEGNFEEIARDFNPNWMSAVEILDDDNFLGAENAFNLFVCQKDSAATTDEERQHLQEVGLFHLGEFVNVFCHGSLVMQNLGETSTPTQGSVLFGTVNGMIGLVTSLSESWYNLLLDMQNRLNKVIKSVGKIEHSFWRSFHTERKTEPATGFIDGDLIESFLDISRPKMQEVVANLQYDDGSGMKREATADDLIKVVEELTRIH

Structure (SMILES)	GI50 ([1]; Homo sapiens, 96 h)	Emax ([1]; Homo sapiens, 96 h)	DC50 [2, 3]	DC50 [2, 4]	Emax [2, 5]	DC50 [2, 6]	Emax [2, 7]	DC50 [2, 8]	GI50 [1]	HiBiT-Degradation A375.10 BRAF 2 hours Emax ([2]; 2 hours, residual protein remaining)
CCN(C)S(=O)(=O)Nc1ccc(F)c(Oc2ccc3ncc(C4CC5(C4)CN(C4CCC(c6cc7c(cc6F)c(N6CCC(=O)NC6=O)nn7C)CC4)C5)nc3c2)c1C#N (single isomer, unassigned) [Compound 297, 7-[2-cyano-3-[[ethyl(methyl)sulfamoyl]amino]-6-fluoro-phenoxy]-2-[2-[4-[3-(2,4-dioxohexahydropyrimidin-1-yl)-5-fluoro-1-methyl-indazol-6-yl]cyclohexyl]-2-azaspiro[3.3]heptan-6-yl]quinoxaline]	1 to 10 µM	50 to 90%	< 1 µM	1 to 10 µM	50 to 90%	< 1 µM	< 50%	< 1 µM	–	–
CC(C)S(=O)(=O)Nc1ccc(F)c(Oc2ccc3ncc(C4CC5(CCN(C6CCC(c7cc8c(cc7F)c(N7CCC(=O)NC7=O)nn8C)CC6)CC5)C4)nc3c2)c1C#N (single isomer, unassigned) [Compound 248, N-[2-cyano-3-[3-[7-[4-[3-(2,4-dioxohexahydropyrimidin-1-yl)-5-fluoro-1-methyl-indazol-6-yl]cyclohexyl]-7-azaspiro[3.5]nonan-2-yl]quinoxalin-6-yl]oxy-4-fluoro-phenyl]propane-2-sulfonamide]	1 to 10 µM	50 to 90%	< 1 µM	< 1 µM	< 50%	–	–	–	–	–
CCN(C)S(=O)(=O)Nc1ccc(F)c(Oc2ccc3ncn(C4CC5(C4)CN(CC4CCN(c6cc7c(cc6F)c(N6CCC(=O)NC6=O)nn7C)CC4)C5)c(=O)c3c2)c1C#N [Compound 296, 6-[2-cyano-3-[[ethyl(methyl)sulfamoyl]amino]-6-fluoro-phenoxy]-3-[2-[[1-[3-(2,4-dioxohexahydropyrimidin-1-yl)-5-fluoro-1-methyl-indazol-6-yl]-4-piperidyl]methyl]-2-azaspiro[3.3]heptan-6-yl]-4-oxo-quinazoline]	< 1 µM	50 to 90%	< 1 µM	< 1 µM	50 to 90%	< 1 µM	< 50%	< 1 µM	–	–
CCN(C)S(=O)(=O)Nc1ccc(F)c(Oc2ccc3ncn(C4CC5(C4)CN(C4CC6(C4)CN(c4cc7c(cc4F)c(N4CCC(=O)NC4=O)nn7C)C6)C5)c(=O)c3c2)c1C#N (stereo not drawn) [Compound 305, 6-[2-cyano-3-[[ethyl(methyl)sulfamoyl]amino]-6-fluoro-phenoxy]-3-[2-[2-[3-(2,4-dioxohexahydropyrimidin-1-yl)-5-fluoro-1-methyl-indazol-6-yl]-2-azaspiro[3.3]heptan-6-yl]-2-azaspiro[3.3]heptan-6-yl]-4-oxo-quinazoline]	< 1 µM	50 to 90%	< 1 µM	< 1 µM	< 50%	< 1 µM	< 50%	< 1 µM	–	–
CCN(C)S(=O)(=O)Nc1ccc(F)c(Oc2ccc3ncn(C4CC5(CCN(C6CCC(c7cc8c(cc7F)c(N7CCC(=O)NC7=O)nn8C)CC6)C5)C4)c(=O)c3c2)c1C#N (single isomer, unassigned) [Compound 205, 6-[2-cyano-3-[[ethyl(methyl)sulfamoyl]amino]-6-fluoro-phenoxy]-3-[6-[4-[3-(2,4-dioxohexahydropyrimidin-1-yl)-5-fluoro-1-methyl-indazol-6-yl]cyclohexyl]-6-azaspiro[3.4]octan-2-yl]-4-oxo-quinazoline]	–	50 to 90%	< 1 µM	> 10 µM	–	–	–	–	> 10 µM	** (<90% and >50%)
CCN(C)S(=O)(=O)Nc1ccc(F)c(Oc2ccc3ncc(C4CC5(C4)CN(C4CC6(C4)CN(c4cc7c(cc4F)c(N4CCC(=O)NC4=O)nn7C)C6)C5)nc3c2)c1C#N (stereo not drawn) [Compound 303, 7-[2-cyano-3-[[ethyl(methyl)sulfamoyl]amino]-6-fluoro-phenoxy]-2-[2-[2-[3-(2,4-dioxohexahydropyrimidin-1-yl)-5-fluoro-1-methyl-indazol-6-yl]-2-azaspiro[3.3]heptan-6-yl]-2-azaspiro[3.3]heptan-6-yl]quinoxaline]	> 10 µM	50 to 90%	< 1 µM	1 to 10 µM	50 to 90%	–	–	–	–	–
